Test results published in patent US20200339691A1, “PROTEINACEOUS MOLECULES AND USES THEREFOR” (priority 2018, published 2020).
Where a SMILES comes first, the peptide text is derived from it. The star is where a group is joined. Myristoyl = CCCCCCCCCCCCCC(=O)*

Key:
[1] = test system: CD44^hiCD24^lo CSCs in MDA-MB-231 cells; test: FACS analysis of CD44^hiCD24^lo cancer stem cells in MDA-MB-231 cells treated with P1 analogues; type: cell-based, human; conditions: 50 μM peptide, 48 hours; for CD44^hiCD24^lo CSCs (%) / COI, Live Single CD44^hiCD24^lo CSCs (Cell Count): n = 1; for Average Inhibition of CSCs (%) / CD44^hiCD24^lo CSCs (%) Repeat 1 / CD44^hiCD24^lo CSCs (%) Repeat 2 / CD44^hiCD24^lo CSCs (%) Repeat 3: n = 3
Procedure: Analogues of P1 (Table 6) were designed and synthesized in accordance with the procedure of Example 5. The ability of these analogues to inhibit cancer stem cells was determined using FACS analysis on MDA-MB-231 cells, which constitutively contain approximately 90% CD44^hiCD24^lo cancer stem cells, treated with the peptides.
(§1) Non-adherent cells were removed during the washing steps.

MDA-MB-231 cells = type: cell-based, human; conditions: 50 μM peptide, 48 hours, n = 1
Source text: as §1
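Throughout, for COI, Live Single Cells (Cell Count): live means Hoechst-negative events among single cells.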

SMILES | Inhibition of CSCs (%) Repeat 1 [1] [%] | Inhibition of CSCs (%) Repeat 2 [1] [%] | Inhibition of CSCs (%) Repeat 3 [1] [%] | CD44^hiCD24^lo CSCs (%) [1] [%] | COI, Live Single CD44^hiCD24^lo CSCs (Cell Count) [1] | Average Inhibition of CSCs (%) [1] [%] | CD44^hiCD24^lo CSCs (%) Repeat 1 [1] [%] | CD44^hiCD24^lo CSCs (%) Repeat 2 [1] [%] | CD44^hiCD24^lo CSCs (%) Repeat 3 [1] [%] | COI (Cell Count) (MDA-MB-231 cells) | COI, Live Single Cells (Cell Count) (MDA-MB-231 cells) | COI, Single (Cell Count) (MDA-MB-231 cells) | Total Cell Count (MDA-MB-231 cells)
CCCCCCCCCCCCCC(=O)N[C@@H](CC(C)C)C(=O)N[C@H](C(=O)N[C@@H](Cc1ccccc1)C(=O)N[C@@H](CC(C)C)C(=O)N[C@@H](Cc1ccccc1)C(=O)N[C@@H](CCCNC(=N)N)C(=O)N[C@@H](CC(C)C)C(=O)N[C@@H](CCCNC(=N)N)C(=O)N[C@@H](CCCCN)C(=O)NCC(=O)N[C@@H](CCCNC(=N)N)C(=O)N[C@@H](CCSC)C(=O)N[C@@H](CCSC)C(=O)N[C@@H](CC(=O)O)C(=O)N[C@H](C(=O)N[C@@H](CCCCN)C(=O)N[C@@H](CCCCN)C(N)=O)C(C)C)[C@@H](C)O [Peptide 2853812, Myristoyl-LTFLFRLRKGRMMDVKK-NH2] (Myristoyl-LTFLFRLRKGRMMDVKK-NH2) | 80.95 | 86.31 | 86.89 | 16.67 | 14 | 84.72 | 17.07 | 12.28 | 11.76 | 108 | 84 | 87 | 3794
CCCCCCCCCCCCCC(=O)N[C@H](C(=O)N[C@@H](Cc1ccccc1)C(=O)N[C@H](C(=O)N[C@@H](C)C(=O)N[C@@H](CCCNC(=N)N)C(=O)N[C@@H](CC(C)C)C(=O)N[C@@H](CCCNC(=N)N)C(=O)N[C@@H](CCCCN)C(=O)NCC(=O)N[C@@H](CCCNC(=N)N)C(=O)N[C@@H](CCSC)C(=O)N[C@@H](CCSC)C(=O)N[C@@H](CC(=O)O)C(=O)N[C@H](C(=O)N[C@@H](CCCCN)C(=O)N[C@@H](CCCCN)C(N)=O)C(C)C)[C@@H](C)CC)[C@@H](C)O [Peptide 2815305, Myristoyl-TFIARLRKGRMMDVKK-NH2] (Myristoyl-TFIARLRKGRMMDVKK-NH2) | 7.19 | 10.83 | 2.94 | 93.18 | 82 | 6.99 | 83.18 | 80.00 | 87.10 | 129 | 88 | 121 | 2870
CCCCCCCCCCCCCC(=O)N[C@@H](CC(C)C)C(=O)N[C@H](C(=O)N[C@@H](Cc1ccccc1)C(=O)N[C@H](C(=O)N[C@@H](Cc1ccccc1)C(=O)N[C@@H](CCCNC(=N)N)C(=O)N[C@@H](CC(C)C)C(=O)N[C@@H](CCCNC(=N)N)C(=O)N[C@@H](CCCCN)C(=O)NCC(=O)N[C@@H](CCCNC(=N)N)C(=O)N[C@@H](CCSC)C(=O)N[C@@H](CCSC)C(=O)N[C@@H](CC(=O)O)C(=O)N[C@H](C(=O)N[C@@H](Cc1ccc(O)cc1)C(=O)N[C@@H](CCCCN)C(N)=O)C(C)C)[C@@H](C)CC)[C@@H](C)O [Peptide 2853843, Myristoyl-LTFIFRLRKGRMMDVYK-NH2] (Myristoyl-LTFIFRLRKGRMMDVYK-NH2) | 87.60 | 82.06 | 90.31 | 7.50 | 6 | 86.66 | 11.11 | 16.09 | 8.70 | 402 | 80 | 298 | 9152
CCCCCCCCCCCCCC(=O)N[C@@H](CC(C)C)C(=O)N[C@H](C(=O)N[C@@H](Cc1ccccc1)C(=O)N[C@H](C(=O)N[C@@H](Cc1ccccc1)C(=O)N[C@@H](CCCNC(=N)N)C(=O)N[C@@H](CC(C)C)C(=O)N[C@@H](CCCNC(=N)N)C(=O)N[C@@H](CCCCN)C(=O)NCC(=O)N[C@H](C(=O)N[C@@H](CCSC)C(=O)N[C@@H](CCSC)C(=O)N[C@@H](CC(=O)O)C(=O)N[C@H](C(=O)N[C@@H](CCCCN)C(=O)N[C@@H](CCCCN)C(N)=O)C(C)C)C(C)C)[C@@H](C)CC)[C@@H](C)O [Peptide 2853831, Myristoyl-LTFIFRLRKGVMMDVKK-NH2] (Myristoyl-LTFIFRLRKGVMMDVKK-NH2) | 79.77 | 84.29 | 89.06 | 11.83 | 11 | 84.37 | 18.13 | 14.09 | 9.82 | 377 | 93 | 280 | 10000
CCCCCCCCCCCCCC(=O)N[C@@H](CCC(=O)O)C(=O)N[C@H](C(=O)N[C@@H](Cc1ccccc1)C(=O)N[C@H](C(=O)N[C@@H](Cc1ccccc1)C(=O)N[C@@H](CCCNC(=N)N)C(=O)N[C@@H](CC(C)C)C(=O)N[C@@H](CCCNC(=N)N)C(=O)N[C@@H](CCCCN)C(=O)NCC(=O)N[C@@H](CCCNC(=N)N)C(=O)N[C@@H](CCSC)C(=O)N[C@@H](CCSC)C(=O)N[C@@H](CC(=O)O)C(=O)N[C@H](C(=O)N[C@@H](CCCCN)C(=O)N[C@@H](CCCCN)C(N)=O)C(C)C)[C@@H](C)CC)[C@@H](C)O [Peptide 2853802, Myristoyl-ETFIFRLRKGRMMDVKK-NH2] (Myristoyl-ETFIFRLRKGRMMDVKK-NH2) | 42.88 | 46.07 | 49.94 | 48.71 | 3133 | 46.30 | 51.19 | 48.38 | 44.92 | 7612 | 6432 | 7095 | 9672
CCCCCCCCCCCCCC(=O)N[C@@H](CC(C)C)C(=O)N[C@H](C(=O)N[C@@H](Cc1ccccc1)C(=O)N[C@H](C(=O)N[C@@H](Cc1ccccc1)C(=O)N[C@@H](CCCNC(=N)N)C(=O)N[C@@H](CC(C)C)C(=O)N[C@@H](CCCNC(=N)N)C(=O)N[C@@H](CCCCN)C(=O)NCC(=O)N[C@@H](CCC(=O)O)C(=O)N[C@@H](CCSC)C(=O)N[C@@H](CCSC)C(=O)N[C@@H](CC(=O)O)C(=O)N[C@H](C(=O)N[C@@H](CCCCN)C(=O)N[C@@H](CCCCN)C(N)=O)C(C)C)[C@@H](C)CC)[C@@H](C)O [Peptide 2853830, Myristoyl-LTFIFRLRKGEMMDVKK-NH2] (Myristoyl-LTFIFRLRKGEMMDVKK-NH2) | 45.65 | 53.16 | 55.12 | 29.21 | 1312 | 51.31 | 48.71 | 42.02 | 40.27 | 5072 | 4491 | 4600 | 8489
CCCCCCCCCCCCCC(=O)N[C@@H](CC(C)C)C(=O)N[C@H](C(=O)N[C@@H](Cc1ccccc1)C(=O)N[C@@H](CCCCN)C(=O)N[C@@H](Cc1ccccc1)C(=O)N[C@@H](CCCNC(=N)N)C(=O)N[C@@H](CC(C)C)C(=O)N[C@@H](CCCNC(=N)N)C(=O)N[C@@H](CCCCN)C(=O)NCC(=O)N[C@@H](CCCNC(=N)N)C(=O)N[C@@H](CCSC)C(=O)N[C@@H](CCSC)C(=O)N[C@@H](CC(=O)O)C(=O)N[C@H](C(=O)N[C@@H](CCCCN)C(=O)N[C@@H](CCCCN)C(N)=O)C(C)C)[C@@H](C)O [Peptide 2853811, Myristoyl-LTFKFRLRKGRMMDVKK-NH2] (Myristoyl-LTFKFRLRKGRMMDVKK-NH2) | 57.93 | 62.10 | 67.22 | 39.06 | 25 | 62.42 | 37.70 | 34.00 | 29.41 | 79 | 64 | 69 | 1274
CCCCCCCCCCCCCC(=O)N[C@@H](CC(C)C)C(=O)N[C@H](C(=O)N[C@@H](Cc1ccccc1)C(=O)N[C@H](C(=O)N[C@@H](Cc1ccccc1)C(=O)N[C@@H](CCCNC(=N)N)C(=O)N[C@@H](CC(C)C)C(=O)N[C@@H](CCCNC(=N)N)C(=O)N[C@@H](CCCCN)C(=O)NCC(=O)N[C@@H](CCCNC(=N)N)C(=O)N[C@@H](CCCCN)C(=O)N[C@@H](CCSC)C(=O)N[C@@H](CC(=O)O)C(=O)N[C@H](C(=O)N[C@@H](CCCCN)C(=O)N[C@@H](CCCCN)C(N)=O)C(C)C)[C@@H](C)CC)[C@@H](C)O [Peptide 2853833, Myristoyl-LTFIFRLRKGRKMDVKK-NH2] (Myristoyl-LTFIFRLRKGRKMDVKK-NH2) | 70.25 | 75.23 | 85.46 | 12.50 | 9 | 76.98 | 26.67 | 22.22 | 13.04 | 495 | 72 | 363 | 4559
